Data reported in ChEMBL document CHEMBL2163284, “Targeting the S1 and S3 subsite of trypsin with unnatural cationic amino acids generates antimicrobial peptides with potential for oral administration” (J Med Chem, 2012).
pKd: −log10 of the molar value. In brackets after ≈: the same amount, converted by molar mass. Non-standard residues stand in square brackets, D forms with d. Residues, ends and D or L forms follow the SMILES beside them. *: point of attachment. Phe(4-guanidino) = N=C(N)Nc1ccc(C[C@H](N)C(=O)O)cc1; Bip = N[C@@H](Cc1ccc(-c2ccccc2)cc1)C(=O)O; Phe(4-NH2) = Nc1ccc(C[C@H](N)C(=O)O)cc1; hArg = N=C(N)NCCCC[C@H](N)C(=O)O; Agp = N=C(N)NC[C@H](N)C(=O)O; Orn = NCCC[C@H](N)C(=O)O; NHBn = c1ccc(CN*)cc1

Columns and labels:
Staphylococcus aureus [1] = assay: Antimicrobial activity against Staphylococcus aureus ATCC 25923 by serial dilution method; format: functional
[2] = Chemical stability assessed as half life at 1 mg/ml in presence of trypsin incubated for 24 hrs by RP-HPLC; format: physicochemical; conditions: for half-life at 1 mg/ml: trypsin; for t1/2: isolated protein, 24 h
[3] = Binding affinity to trypsin at 25 degC by isothermal calorimetry
Staphylococcus aureus [4] = assay: Antimicrobial activity against methicillin-resistant Staphylococcus aureus ATCC 33591 by serial dilution method; format: functional
[5] = Half life in CD1 mouse liver whole organ extracts assessed as half life at 1 mg/ml at 37 degC by HPLC; format: ADME, tissue-based
[6] = Half life in CD1 mouse duodenum whole organ extracts assessed as half life at 1 mg/ml at 37 degC by HPLC; format: ADME, tissue-based
[7] = Half life in CD1 mouse stomach whole organ extracts assessed as half life at 1 mg/ml at 37 degC at pH 7.4 by HPLC; format: ADME, tissue-based

Structure (SMILES) | MIC (Staphylococcus aureus [1]) | half-life at 1 mg/ml [2] | pKd [3] | MIC (Staphylococcus aureus [4]) | half-life at 1 mg/ml [5] | half-life at 1 mg/ml [6] | half-life at 1 mg/ml [7] | t1/2 [2]
N=C(N)NCCC[C@H](N)C(=O)N[C@@H](Cc1ccc(-c2ccccc2)cc1)C(=O)N[C@@H](Cc1ccc(NC(=N)N)cc1)C(=O)NCc1ccccc1 | 5 µg/mL (≈ 7.24 µM) | 4.1 h | 5.28 | 5 µg/mL (≈ 7.24 µM) | – | – | – | –
N=C(N)NCCC[C@H](NC(=O)[C@@H](N)CCCNC(=N)N)C(=O)N[C@@H](Cc1c[nH]c2ccccc12)C(=O)NCc1ccccc1 (H-Arg-Arg-Trp-NHBn) | 25 µg/mL (≈ 41.3 µM) | < 0.5 h | – | 75 µg/mL (≈ 124 µM) | – | – | – | –
N=C(N)NCCC[C@H](NC(=O)[C@@H](N)CCCNC(=N)N)C(=O)N[C@@H](Cc1ccc(-c2ccccc2)cc1)C(=O)NCc1ccccc1 (H-Arg-Arg-[Bip]-NHBn) | 5 µg/mL (≈ 7.78 µM) | < 0.5 h | – | 5 µg/mL (≈ 7.78 µM) | – | – | – | –
N=C(N)NCCC[C@H](NC(=O)[C@H](Cc1ccc(-c2ccccc2)cc1)NC(=O)[C@@H](N)CCCNC(=N)N)C(=O)NCc1ccccc1 (H-Arg-[Bip]-Arg-NHBn) | 10 µg/mL (≈ 15.6 µM) | 1 h | 4.95 | 10 µg/mL (≈ 15.6 µM) | 1.76 h | 0.102 h | 0.167 h | –
N=C(N)NCCC[C@H](N)C(=O)N[C@@H](Cc1ccc(-c2ccccc2)cc1)C(=O)N[C@@H](CCCCN)C(=O)NCc1ccccc1 (H-Arg-[Bip]-Lys-NHBn) | 10 µg/mL (≈ 16.3 µM) | 2.8 h | 4.70 | 10 µg/mL (≈ 16.3 µM) | – | – | – | –
N=C(N)NCCC[C@H](N)C(=O)N[C@@H](Cc1ccc(-c2ccccc2)cc1)C(=O)N[C@@H](CNC(=N)N)C(=O)NCc1ccccc1 (H-Arg-[Bip]-[Agp]-NHBn) | 5 µg/mL (≈ 8.13 µM) | – | – | 5 µg/mL (≈ 8.13 µM) | 3.19 h | 5.39 h | 11.7 h | Stable
N=C(N)NCCC[C@H](N)C(=O)N[C@@H](Cc1ccc(-c2ccccc2)cc1)C(=O)N[C@@H](CCCN)C(=O)NCc1ccccc1 (H-Arg-[Bip]-[Orn]-NHBn) | 5 µg/mL (≈ 8.32 µM) | – | 4.24 | 10 µg/mL (≈ 16.6 µM) | – | – | – | Stable
N=C(N)NCCCC[C@H](NC(=O)[C@H](Cc1ccc(-c2ccccc2)cc1)NC(=O)[C@@H](N)CCCNC(=N)N)C(=O)NCc1ccccc1 (H-Arg-[Bip]-[hArg]-NHBn) | 5 µg/mL (≈ 7.61 µM) | – | 4.32 | 10 µg/mL (≈ 15.2 µM) | 1.07 h | 1.37 h | 6.69 h | Stable
N=C(N)NCCC[C@H](N)C(=O)N[C@@H](Cc1ccc(N)cc1)C(=O)N[C@@H](Cc1c[nH]c2ccccc12)C(=O)NCc1ccccc1 (H-Arg-[Phe(4-NH2)]-Trp-NHBn) | 75 µg/mL (≈ 123 µM) | – | 4.83 | > 150 µg/mL | – | – | – | Stable
N=C(N)NCCC[C@H](N)C(=O)N[C@@H](Cc1ccc(N)cc1)C(=O)N[C@@H](Cc1ccc(-c2ccccc2)cc1)C(=O)NCc1ccccc1 (H-Arg-[Phe(4-NH2)]-[Bip]-NHBn) | 15 µg/mL (≈ 23.1 µM) | – | 5.59 | 10 µg/mL (≈ 15.4 µM) | – | – | – | Stable
N=C(N)NCCC[C@H](N)C(=O)N[C@@H](Cc1ccc(NC(=N)N)cc1)C(=O)N[C@@H](Cc1c[nH]c2ccccc12)C(=O)NCc1ccccc1 (H-Arg-[Phe(4-guanidino)]-Trp-NHBn) | 15 µg/mL (≈ 22.9 µM) | 8 h | – | 50 µg/mL (≈ 76.5 µM) | – | – | – | –
N=C(N)NCCC[C@H](N)C(=O)N[C@@H](Cc1ccc(NC(=N)N)cc1)C(=O)N[C@@H](Cc1ccc(-c2ccccc2)cc1)C(=O)NCc1ccccc1 (H-Arg-[Phe(4-guanidino)]-[Bip]-NHBn) | 2.5 µg/mL (≈ 3.62 µM) | 3.5 h | – | 5 µg/mL (≈ 7.24 µM) | – | – | – | –
N=C(N)NCCC[C@H](NC(=O)[C@H](Cc1ccc(-c2ccccc2)cc1)NC(=O)[C@@H](N)CCCCN)C(=O)NCc1ccccc1 (H-Lys-[Bip]-Arg-NHBn) | 10 µg/mL (≈ 16.3 µM) | 1.8 h | 4.94 | 10 µg/mL (≈ 16.3 µM) | – | – | – | –
NCCCC[C@H](NC(=O)[C@H](Cc1ccc(-c2ccccc2)cc1)NC(=O)[C@@H](N)CCCCN)C(=O)NCc1ccccc1 (H-Lys-[Bip]-Lys-NHBn) | 25 µg/mL (≈ 42.6 µM) | 4.5 h | 4.68 | 15 µg/mL (≈ 25.6 µM) | – | – | – | –
N=C(N)Nc1ccc(C[C@H](NC(=O)[C@H](Cc2ccc(-c3ccccc3)cc2)NC(=O)[C@@H](N)CCCCN)C(=O)NCc2ccccc2)cc1 (H-Lys-[Bip]-[Phe(4-guanidino)]-NHBn) | 5 µg/mL (≈ 7.54 µM) | 5 h | – | 5 µg/mL (≈ 7.54 µM) | – | – | – | –
N=C(N)NCCC[C@H](NC(=O)[C@H](Cc1ccc(-c2ccccc2)cc1)NC(=O)[C@@H](N)CNC(=N)N)C(=O)NCc1ccccc1 (H-[Agp]-[Bip]-Arg-NHBn) | 10 µg/mL (≈ 16.3 µM) | 1.4 h | – | 10 µg/mL (≈ 16.3 µM) | – | – | – | –
N=C(N)NC[C@H](NC(=O)[C@H](Cc1ccc(-c2ccccc2)cc1)NC(=O)[C@@H](N)CNC(=N)N)C(=O)NCc1ccccc1 (H-[Agp]-[Bip]-[Agp]-NHBn) | 10 µg/mL (≈ 17 µM) | – | – | 15 µg/mL (≈ 25.6 µM) | – | – | – | Stable
N=C(N)NCCC[C@H](NC(=O)[C@H](Cc1ccc(-c2ccccc2)cc1)NC(=O)[C@@H](N)CCCN)C(=O)NCc1ccccc1 (H-[Orn]-[Bip]-Arg-NHBn) | 15 µg/mL (≈ 25 µM) | 5.1 h | 4.43 | 25 µg/mL (≈ 41.6 µM) | – | – | – | –
N=C(N)NCCC[C@H](NC(=O)[C@H](Cc1ccc(-c2ccccc2)cc1)NC(=O)[C@@H](N)Cc1ccc(NC(=N)N)cc1)C(=O)NCc1ccccc1 (H-[Phe(4-guanidino)]-[Bip]-Arg-NHBn) | 5 µg/mL (≈ 7.24 µM) | 0.5 h | – | 5 µg/mL (≈ 7.24 µM) | – | – | – | –
N=C(N)Nc1ccc(C[C@H](N)C(=O)N[C@@H](Cc2ccc(-c3ccccc3)cc2)C(=O)N[C@@H](CCCCN)C(=O)NCc2ccccc2)cc1 (H-[Phe(4-guanidino)]-[Bip]-Lys-NHBn) | 5 µg/mL (≈ 7.54 µM) | 2.2 h | – | 10 µg/mL (≈ 15.1 µM) | – | – | – | –
N=C(N)Nc1ccc(C[C@H](NC(=O)[C@H](Cc2ccc(-c3ccccc3)cc2)NC(=O)[C@@H](N)Cc2ccc(NC(=N)N)cc2)C(=O)NCc2ccccc2)cc1 (H-[Phe(4-guanidino)]-[Bip]-[Phe(4-guanidino)]-NHBn) | < 2.5 µg/mL | 2.2 h | – | 5 µg/mL (≈ 6.77 µM) | – | – | – | –
N=C(N)NCCCC[C@H](N)C(=O)N[C@@H](Cc1ccc(-c2ccccc2)cc1)C(=O)N[C@@H](CCCNC(=N)N)C(=O)NCc1ccccc1 (H-[hArg]-[Bip]-Arg-NHBn) | < 2.5 µg/mL | 1.9 h | – | 10 µg/mL (≈ 15.2 µM) | – | – | – | –
